The text below walks through data of ChEMBL document CHEMBL1857833, “Screening and optimization of specific chemical series against human African Trypanosomiasis (HAT)”.

Data set [1] in a line: DNDI: Cytotoxicity against L929 mouse fibroblasts, 72 hour. In kind it is toxicity, cell-based. The conditions noted are these: mouse, L929 mouse fibroblasts.
Data set [2] relates to Trypanosoma brucei. Nature of the data set: DNDI: Inhibition of Human African Trypanosomiasis, SBRI 427, in vitro. In kind it is functional, organism-based.
The test system of data set [3] is Trypanosoma brucei. Nature of the data set: DNDI: Mean survival time in days (MSD) of mice after intraperitoneal injection of Human African Trypanosomiasis (HAT), EATRO 110, in vivo at 20 mg/kg/day for 4 days. Type of data set: functional, Mus musculus.
The conditions of data set [4]: mouse, microsomes, 1 µM.
Description: DNDI: in vitro intrinsic clearance in mouse liver microsomes at a concentration of 1uM
The nature of the next data set: in vitro. The settings on record: mouse, liver microsomes, t (1 / 2).
Data set [5] can be described thus: DNDI: Cytotoxicity against L929 mouse fibroblasts, CYTO-SP, 24 hour. In kind it is toxicity, cell-based. The settings on record: mouse, L929 mouse fibroblasts.
For the next data set, the system named is Trypanosoma cruzi. Nature of the data set: DNDI: Inhibition of Chagas Disease parasite Trypanosoma cruzi (Tulahuen LacZ, Clone C4), in vitro. In kind it is functional, organism-based.
Data set [6] in a line: DNDI: Cytotoxicity against L-6 rat myoblasts from skeletal muscle cells. Type of data set: toxicity, cell-based, L6. The settings on record: L-6 rat skeletal muscle myoblasts.
Data set [7] has as its system Trypanosoma brucei rhodesiense. Nature of the data set: DNDI: Inhibition of Human African Trypanosomiasis (HAT), STIB 900, in vitro. In kind it is functional, organism-based.
For another data set, the system named is Leishmania donovani. Nature of the data set: DNDI: Inhibition of formation of Leishmania donovani (strain MHOM/ET/67/L82) axenic amastigotes, in vitro. Type of data set: functional, organism-based.
A further data set relates to Plasmodium falciparum. Nature of the data set: DNDI: Inhibition of the malaria parasite Plasmodium falciparum, in vitro. In kind it is functional, organism-based. The conditions noted are these: K1.
A short description of data set [8]: DNDI: Lipophilicity measured in Chromatographic hydrophobicity index (CHI) assay, pH 7.4. The settings on record: buffer. In kind it is physicochemical.
Data set [9] is described as follows: DNDI: Solubility in phosphate buffered saline at pH7.4 measured by nephelometry at room temperature (NEPH-RT). In kind it is physicochemical. The conditions noted are these: pH 7.4.
Data set [10] in a line: DNDI: in vitro intrinsic clearance in mouse liver microsomes at a concentration of 10uM. The settings on record: read-out: CLint in vitro. In kind it is ADME, Microsome. (In general: Microsomes from liver hold many membrane-bound enzymes, among them those of drug oxidation.)
Data set [11] in a line: DNDI: half life in mouse liver microsomes at a concentration of 10uM. Type of data set: ADME, Microsome.
Data set [12] can be described thus: DNDI: Solubility in phosphate buffered saline at pH7.4 measured by optical density (turbidimetry) at room temperature (OD-RT). Type of data set: physicochemical. The conditions noted are these: pH 7.4.
Data set [13] deals with Trypanosoma brucei. Nature of the data set: DNDI: Inhibition of Human African Trypanosomiasis, Cross 22, in vitro. Type of data set: functional, organism-based.
Setting [14] is: Trypanosoma brucei, SBRI 427, read-out: IC50.

The term IC50 denotes the concentration at which inhibition is half-maximal. What is called half-life is how long it takes for the measured level to halve. The low end stands for fast loss, the high end for slow loss. What is called chromatographic logD is lipophilicity estimated from chromatographic retention. Read a high chromatographic logD as higher lipophilicity. As usually defined, the kinetic solubility is solubility judged after dilution from a stock solution rather than from solid.

≈ marks a conversion by molar mass, not a printed value. Where “and” joins values, the source holds several entries; their conditions need not be identical. Equal values may be shown once. Bounds are passed on as bounds.

Description for in vitro: DNDI: half life in mouse liver microsomes at a concentration of 1uM

The compound `Cc1ccc(/C(=N/O)NC2CCCCC2)c(Oc2ccc(C(C)(C)C)cc2)n1` returned an IC50 at 72 h in data set [1] of 4.06 µg/mL (≈ 10.6 µM). Further, the IC50 in the data set on Trypanosoma brucei [2] (setting [14]) was over 5 µg/mL. In addition, the MSD with Trypanosoma brucei [3] is 4.5 days. The compound also had a CLint in vitro in [4] of 98.83 µL/min/mg. In “in vitro”, this compound gave a half-life at 1 µM of 8.61 min.

`CCc1ccc(N/C(=N/O)c2ccc(OC)cc2)cc1` came in with an IC50 at 24 h in [5] of over 50 µg/mL. The IC50 in the data set on Trypanosoma brucei [2] (setting [14]) came out at 3.69 µg/mL (≈ 13.6 µM). The same compound gave an MSD with Trypanosoma brucei [3] of 4.5 days.

In turn, `CC(C)(C)c1ccc(Oc2ncccc2/C(=N/O)Nc2cccc(F)c2)cc1` returned an IC50 at 72 h in data set [1] of 3.39 µg/mL (≈ 8.93 µM). Moreover, the IC50 in the data set with Trypanosoma brucei [2] (setting [14]) is over 5 µg/mL. Moreover, the MSD with Trypanosoma brucei [3] came out at 4 days. In addition, the CLint in vitro in data set [4] is 35.83 µL/min/mg. The half-life at 1 µM in “in vitro” stood at 23.7 min.

In data set [1], `CCc1ccc(Oc2ncccc2/C(=N\O)NC2CCCCC2O)cc1` (configuration not stated) yielded an IC50 at 72 h of over 10 µg/mL. For the same compound, the IC50 in the data set on Trypanosoma brucei [2] (setting [14]) was over 5 µg/mL. For the same compound, the MSD in the data set on Trypanosoma brucei [3] worked out at 4 days. In data set [4], this compound registered a CLint in vitro of 51 µL/min/mg. Also, the half-life at 1 µM in the data set “in vitro” was determined as 17 min.

As to `CCc1ccc(Oc2ncccc2/C(=N\O)NC2CCCC[C@@H]2N)cc1` (some centres not stated), the half-inhibitory concentration (IC50) at 72 h in data set [1] was over 10 µg/mL. Further, the IC50 in the data set on Trypanosoma brucei [2] (setting [14]) was over 5 µg/mL. The compound also returned an MSD with Trypanosoma brucei [3] of 4 days. Moreover, in data set [4], the CLint in vitro worked out at 7 µL/min/mg. In “in vitro”, this compound registered a half-life at 1 µM of 116 min.

Regarding `CCC(CC)N/C(=N\O)c1ccccc1-c1ccccc1`, the IC50 came out at 7.73 µg/mL (≈ 27.4 µM) in the data set with Trypanosoma cruzi; 17.2 µg/mL (≈ 60.9 µM) in data set [6]; 1.19 µg/mL (≈ 4.21 µM) with Trypanosoma brucei [2] (setting [14]); 8.99 µg/mL (≈ 31.8 µM) in data set [7]; 13.3 µg/mL (≈ 47 µM) with Leishmania donovani; 2.18 µg/mL (≈ 7.72 µM) in the data set on Plasmodium falciparum. The same compound came in with an IC50 at 24 h in data set [5] of over 50 µg/mL. In addition, the IC50 at 72 h in [1] is over 10 µg/mL.

Take `O/N=C(\NCC1CCCCC1)c1ccccc1-c1ccccc1`: the IC50 in the data set on Trypanosoma cruzi amounted to 3.63 µg/mL (≈ 11.8 µM); in data set [6], 14.8 µg/mL (≈ 47.9 µM); with Trypanosoma brucei [2] (setting [14]) it was 2.15 µg/mL (≈ 6.97 µM); in data set [7], 18.7 µg/mL (≈ 60.6 µM); with Leishmania donovani, 4.75 µg/mL (≈ 15.4 µM); in the data set on Plasmodium falciparum, 2.7 µg/mL (≈ 8.75 µM). 16.1 µg/mL (≈ 52.1 µM) corresponded to half-maximal inhibition in data set [5] (IC50 at 24 h). For the same compound, the IC50 at 72 h in data set [1] turned out to be 2.72 µg/mL (≈ 8.82 µM).

For `COc1ccc(CNC(CCc2ccccc2)c2nc(Cc3ccccc3)c(N3CCCCC3)o2)cc1OC` (configuration not stated), the IC50 at 72 h in data set [1] is over 10 µg/mL. In the data set on Trypanosoma brucei [2] (setting [14]), the IC50 turned out to be 2.54 µg/mL (≈ 4.83 µM). In the data set on Trypanosoma brucei [3], this compound returned an MSD of 4 days. The chromatographic logD in data set [8] is over 5.2. The compound also registered a kinetic solubility in data set [9] of 3 µM (≈ 1.58 µg/mL). The compound also registered a CLint in vitro in data set [4] of 354 µL/min/mg. Moreover, in “in vitro”, the half-life at 1 µM amounted to 2 min.

As to `O/N=C(\NC1CCCCC1)c1ccsc1`, the IC50 in the data set on Trypanosoma cruzi was over 30 µg/mL; in data set [6], over 83.5 µg/mL; with Trypanosoma brucei [2] (setting [14]) it was over 5 µg/mL; in [7], 25.9 µg/mL (≈ 115 µM); in the data set with Leishmania donovani, 13.6 µg/mL (≈ 60.8 µM); in the data set with Plasmodium falciparum, over 5 µg/mL. This compound also returned an IC50 at 24 h in data set [5] of over 50 µg/mL. The same compound gave an IC50 at 72 h in [1] of over 10 µg/mL.

For the compound `CCCCCC(C)NCc1coc(-c2ccc(C)cc2)n1` (configuration not stated), the IC50 in the data set with Trypanosoma cruzi stood at 15.7 µg/mL (≈ 54.8 µM); in [6], 12.6 µg/mL (≈ 43.9 µM); in the data set on Trypanosoma brucei [2] (setting [14]) it was 1.95 µg/mL (≈ 6.81 µM); in data set [7] it was 0.582 µg/mL (≈ 2.03 µM); with Leishmania donovani, 13.6 µg/mL (≈ 47.6 µM); in the data set with Plasmodium falciparum, 1.83 µg/mL (≈ 6.39 µM). Besides, in data set [5], the IC50 at 24 h was found to be 17 µg/mL (≈ 59.4 µM). The compound further had an IC50 at 72 h in [1] of 5.76 µg/mL (≈ 20.1 µM). For the same compound, the chromatographic logD in data set [8] is 4.66. In addition, in [10], the microsomal CLint at 10 µM turned out to be 31 µL/min/mg. For the same compound, the half-life at 10 µM in data set [11] came out at 94 min. The solubility (kinetic) in data set [12] came to 12.5 µM (≈ 3.58 µg/mL).

`CCCCCC(C)NCc1coc(-c2cccc(Cl)c2)n1` (configuration not stated) showed an IC50 at 24 h in data set [5] of 14 µg/mL (≈ 45.6 µM). This compound also returned an IC50 at 72 h in data set [1] of 7.27 µg/mL (≈ 23.7 µM). In addition, in the data set on Trypanosoma brucei [2] (setting [14]), the IC50 was 2.08 µg/mL (≈ 6.78 µM). The compound also yielded a chromatographic logD in data set [8] of 5.02. Moreover, the microsomal CLint at 10 µM in data set [10] came to 28 µL/min/mg. This compound also displayed a half-life at 10 µM in [11] of 103 min. The solubility (kinetic) in data set [12] turned out to be 12.5 µM (≈ 3.84 µg/mL).

With `CCc1ccc(/C(=N/O)NC2CCCCC2)cc1`, the concentration for half-maximal inhibition (IC50) with Trypanosoma cruzi is 10.8 µg/mL (≈ 43.7 µM); in data set [6] it was 53.8 µg/mL (≈ 218 µM); in the data set with Trypanosoma brucei [2] (setting [14]), 0.98 µg/mL (≈ 3.98 µM); in data set [7], 8.75 µg/mL (≈ 35.5 µM); in the data set with Leishmania donovani, 11.3 µg/mL (≈ 45.9 µM); in the data set with Plasmodium falciparum, over 5 µg/mL. In [5], the IC50 at 24 h was over 50 µg/mL. The compound further returned an IC50 at 72 h in data set [1] of over 10 µg/mL. In the data set on Trypanosoma brucei [3], this compound showed an MSD of 4 days. Further, in data set [8], the chromatographic logD came to 4.6. In addition, the kinetic solubility in [9] was 50 µM (≈ 12.3 µg/mL). In data set [4], this compound gave a CLint in vitro of 210 µL/min/mg. The compound also returned a half-life at 1 µM in the data set “in vitro” of 4 min.

Turning to `CCCCCC(C)NCc1coc(-c2ccc(C(C)(C)C)cc2)n1` (configuration not stated), the IC50 is 2.8 µg/mL (≈ 8.52 µM) with Trypanosoma cruzi; 3.25 µg/mL (≈ 9.89 µM) in data set [6]; 0.49 µg/mL (≈ 1.49 µM) in the data set with Trypanosoma brucei [13]; 0.86 µg/mL and 0.42 µg/mL in the data set on Trypanosoma brucei [2]; 0.302 µg/mL (≈ 0.919 µM) in data set [7]; 6.61 µg/mL (≈ 20.1 µM) in the data set with Leishmania donovani. The compound further yielded an IC50 in the data set with Plasmodium falciparum of 0.694 µg/mL (≈ 2.11 µM). Moreover, in [5], the IC50 at 24 h came to 9 µg/mL (≈ 27.4 µM). The same compound showed a half-maximal inhibitory concentration (IC50) at 72 h in data set [1] of 1.36 µg/mL (≈ 4.14 µM). In data set [4], the CLint in vitro came to 17 µL/min/mg. In “in vitro”, this compound had a half-life at 1 µM of 51 min.
